What follows are compounds tested against human plasma kallikrein (Homo sapiens (Human), UniProt P03952) (assay: Determination of the plasma kallikrein activity (fluorogenic substrate H-Pro-Phe-Arg-AMC)). Conditions: plasma kallikrein from Kordia 0.6 nM, 15 min preincubation, 30 min at 22° C., fluorescence.
Format: biochemical
Procedure: a.5) Determination of the Plasma Kallikrein Activity
To determine the plasma kallikrein inhibition of the substances according to the invention, a biochemical test system is used which utilizes the reaction of a peptidic plasma kallikrein substrate to determine the enzymatic activity of human plasma kallikrein. Here, plasma kallikrein cleaves from the peptic plasma kallikrein substrate the C-terminal aminomethylcoumarin (AMC), the fluorescence of which is measured. The determinations are carried out in microtitre plates.
In each case 1 μl of the diluted substance solutions is placed into the wells of white microtitre plates from Greiner (384 wells). 20 μl of assay buffer (50 mM Tris/HCl pH 7.4; 100 mM sodium chloride solution; 5 mM of calcium chloride solution; 0.1% of bovine serum albumin) and 20 μl of plasma kallikrein from Kordia (0.6 nM in assay buffer) are then added successively. After 15 min of incubation, the enzyme reaction is started by addition of 20 μl of the substrate H-Pro-Phe-Arg-AMC dissolved in assay buffer (10 μM in assay buffer) from Bachem, the mixture is incubated at room temperature (22° C.) for 30 min and fluorescence is then measured (excitation: 360 nm, emission: 460 nm). The measured emissions of the test batches with test substance are compared to those of control batches without test substance (only dimethyl sulphoxide instead of test substance in dimethyl sulphoxide), and IC50 values are calculated from the concentration/activity relationships.

Sequence of human plasma kallikrein (P03952 391-638): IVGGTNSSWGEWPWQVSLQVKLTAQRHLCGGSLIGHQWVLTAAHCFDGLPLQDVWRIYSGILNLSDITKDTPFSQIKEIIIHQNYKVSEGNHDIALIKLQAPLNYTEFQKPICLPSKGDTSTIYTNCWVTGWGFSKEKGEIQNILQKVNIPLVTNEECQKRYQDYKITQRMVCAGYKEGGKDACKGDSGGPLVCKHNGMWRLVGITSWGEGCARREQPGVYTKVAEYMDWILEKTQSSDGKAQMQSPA
Sequence of human plasma kallikrein (P03952 20-390 partner): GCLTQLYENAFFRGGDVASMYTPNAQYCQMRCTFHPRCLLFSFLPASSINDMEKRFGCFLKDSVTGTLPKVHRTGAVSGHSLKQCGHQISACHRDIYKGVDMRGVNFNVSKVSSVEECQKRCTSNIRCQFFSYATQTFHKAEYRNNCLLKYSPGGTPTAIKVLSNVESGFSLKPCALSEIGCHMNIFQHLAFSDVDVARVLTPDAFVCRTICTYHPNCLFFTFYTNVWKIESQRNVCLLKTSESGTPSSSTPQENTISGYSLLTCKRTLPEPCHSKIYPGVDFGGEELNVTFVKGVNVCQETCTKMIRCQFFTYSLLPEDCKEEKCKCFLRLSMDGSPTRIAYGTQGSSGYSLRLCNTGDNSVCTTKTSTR

Compound	IC50
CCCCc1nnc2ccc(NC(=O)C(CCOC)n3cc(OC)c(-c4cc(Cl)ccc4C#N)cc3=O)cn12 (racemic) [Example 24, N-(3-Butyl[1,2,4]triazolo[4,3-a]pyridin-6-yl)-2-[4-(5-chloro-2-cyanophenyl)-5-methoxy-2-oxopyridin-1(2H)-yl]-4-methoxybutanamide (racemate)]	16 nM
CCC(C(=O)Nc1ccc2nncn2c1)n1cc(OC)c(-c2cc(Cl)ccc2C#N)cc1=O (racemic) [Example 20, 2-[4-(5-Chloro-2-cyanophenyl)-5-methoxy-2-oxopyridin-1(2H)-yl]-N-([1,2,4]triazolo[4,3-a]pyridin-6-yl)butanamide (racemate)]	23 nM
COCCC(C(=O)Nc1ccn2cc(C(N)=O)nc2c1)n1cc(OC)c(-c2cc(Cl)ccc2C#N)cc1=O (racemic) [Example 12, 7-({2-[4-(5-Chloro-2-cyanophenyl)-5-methoxy-2-oxopyridin-1(2H)-yl]-4-methoxybutanoyl}amino)imidazo[1,2-a]pyridine-2-carboxamide (racemate)]	4.9 nM
CCC(C(=O)Nc1ccc2nc(-c3ccc(F)cc3)cn2c1)n1cc(OC)c(-c2cc(Cl)ccc2C#N)cc1=O (racemic) [Example 18, 2-[4-(5-Chloro-2-cyanophenyl)-5-methoxy-2-oxopyridin-1(2H)-yl]-N-[2-(4-fluorophenyl)-imidazo[1,2-a]pyridin-6-yl]butanamide (racemate)]	130 nM
CCC(C(=O)Nc1ccc2ncc(Cl)n2c1)n1cc(OC)c(-c2cc(Cl)ccc2C#N)cc1=O (racemic) [Example 17, 2-[4-(5-Chloro-2-cyanophenyl)-5-methoxy-2-oxopyridin-1(2H)-yl]-N-(3-chloroimidazo[1,2-a]pyridin-6-yl)butanamide (racemate)]	24 nM
COCCC(C(=O)Nc1ccc2nc(-c3ccc(F)cc3)cn2c1)n1cc(OC)c(-c2cc(Cl)ccc2C#N)cc1=O (racemic) [Example 19, 2-[4-(5-Chloro-2-cyanophenyl)-5-methoxy-2-oxopyridin-1(2H)-yl]-N-[2-(4-fluorophenyl)-imidazo[1,2-a]pyridin-6-yl]-4-methoxybutanamide (racemate)]	25 nM
COCCC(C(=O)Nc1ccc2nnc(CN(C)C)n2c1)n1cc(OC)c(-c2cc(Cl)ccc2C#N)cc1=O (racemic) [Example 25, 2-[4-(5-Chloro-2-cyanophenyl)-5-methoxy-2-oxopyridin-1(2H)-yl]-N-{3-[(dimethylamino)-methyl][1,2,4]triazolo[4,3-a]pyridin-6-yl}-4-methoxybutanamide (racemate)]	23 nM
COc1cn(CC(=O)Nc2ccc3nc(C(=O)O)cn3c2)c(=O)cc1-c1cc(Cl)ccc1C#N [Example 6, 6-({[4-(5-Chloro-2-cyanophenyl)-5-methoxy-2-oxopyridin-1(2H)-yl]acetyl}amino)imidazo[1,2-a]pyridine-2-carboxylic acid]	61 nM
COc1cn(C(Cc2ccccn2)C(=O)Nc2ccc3nccn3c2)c(=O)cc1-c1cc(Cl)ccc1C#N (racemic) [Example 28, 2-[4-(5-Chloro-2-cyanophenyl)-5-methoxy-2-oxopyridin-1(2H)-yl]-N-(imidazo[1,2-a]pyridin-6-yl)-3-(pyridin-2-yl)propanamide (racemate)]	8.8 nM
COCCC(C(=O)Nc1ccc2nccn2c1)n1cc(OC)c(-c2cc(Cl)ccc2C#N)cc1=O (racemic) [Example 13, 2-[4-(5-Chloro-2-cyanophenyl)-5-methoxy-2-oxopyridin-1(2H)-yl]-N-(imidazo[1,2-a]pyridin-6-yl)-4-methoxybutanamide (racemate)]	13 nM
COCCC(C(=O)Nc1ccc2nnc(C)n2c1)n1cc(OC)c(-c2cc(Cl)ccc2C#N)cc1=O (racemic) [Example 22, 2-[4-(5-Chloro-2-cyanophenyl)-5-methoxy-2-oxopyridin-1(2H)-yl]-4-methoxy-N-(3-methyl[1,2,4]triazolo[4,3-a]pyridin-6-yl)butanamide (racemate)]	8.3 nM
COCCC(C(=O)Nc1ccc2cncn2c1)n1cc(Cl)c(-c2cc(Cl)ccc2C#N)cc1=O (racemic) [Example 27, 2-[5-Chloro-4-(5-chloro-2-cyanophenyl)-2-oxopyridin-1(2H)-yl]-N-(imidazo[1,5-a]pyridin-6-yl)-4-methoxybutanamide (racemate)]	50 nM
COc1cn(C(C[C@@H]2CCCCO2)C(=O)Nc2ccc3nc(C(=O)O)cn3c2)c(=O)cc1-c1cc(Cl)ccc1C#N (mixture of isomers) [Example 9, 6-({2-[4-(5-Chloro-2-cyanophenyl)-5-methoxy-2-oxopyridin-1(2H)-yl]-3-[(2S)-tetrahydro-2H-pyran-2-yl]propanoyl}amino)imidazo[1,2-a]pyridine-2-carboxylic acid (mixture of enantiomerically pure diastereomers)]	4.8 nM
COc1cn(C(Cc2cnco2)C(=O)Nc2ccc3nccn3c2)c(=O)cc1-c1cc(Cl)ccc1C#N (racemic) [Example 29, 2-[4-(5-Chloro-2-cyanophenyl)-5-methoxy-2-oxopyridin-1(2H)-yl]-N-(imidazo[1,2-a]pyridin-6-yl)-3-(1,3-oxazol-5-yl)propanamide (racemate)]	11 nM
COCCC(C(=O)Nc1ccn2nccc2c1)n1cc(OC)c(-c2cc(Cl)ccc2C#N)cc1=O (racemic) [Example 35, 2-[4-(5-Chloro-2-cyanophenyl)-5-methoxy-2-oxopyridin-1(2H)-yl]-4-methoxy-N-(pyrazolo[1,5-a]pyridin-5-yl)butanamide (racemate)]	4.3 nM
COCCC(C(=O)Nc1ccc2nccn2c1)n1cc(Cl)c(-c2cc(Cl)ccc2C#N)cc1=O (racemic) [Example 14, 2-[5-Chloro-4-(5-chloro-2-cyanophenyl)-2-oxopyridin-1(2H)-yl]-N-(imidazo[1,2-a]pyridin-6-yl)-4-methoxybutanamide (racemate)]	65 nM
CCC(C(=O)Nc1ccc2nccn2c1)n1cc(OC)c(-c2cc(Cl)ccc2C#N)cc1=O (racemic) [Example 4, 2-[4-(5-Chloro-2-cyanophenyl)-5-methoxy-2-oxopyridin-1(2H)-yl]-N-(imidazo[1,2-a]pyridin-6-yl)butanamide (racemate)]	44 nM
CCOC(=O)c1cn2ccc(NC(=O)C(CCOC)n3cc(OC)c(-c4cc(Cl)ccc4C#N)cc3=O)cc2n1 (racemic) [Example 11, Ethyl 7-({2-[4-(5-chloro-2-cyanophenyl)-5-methoxy-2-oxopyridin-1(2H)-yl]-4-methoxybutanoyl}amino)imidazo[1,2-a]pyridine-2-carboxylate (racemate)]	5 nM
CCC(C(=O)Nc1ccn2cc(C(=O)O)nc2c1)n1cc(OC)c(-c2cc(Cl)ccc2C#N)cc1=O (racemic) [Example 3, 7-({2-[4-(5-Chloro-2-cyanophenyl)-5-methoxy-2-oxopyridin-1(2H)-yl]butanoyl}amino)imidazo[1,2-a]pyridine-2-carboxylic acid (racemate)]	13 nM
CCC(C(=O)Nc1ccn2nccc2c1)n1cc(OC)c(-c2cc(Cl)ccc2C#N)cc1=O (racemic) [Example 34, 2-[4-(5-Chloro-2-cyanophenyl)-5-methoxy-2-oxopyridin-1(2H)-yl]-N-(pyrazolo[1,5-a]pyridin-5-yl)butanamide (racemate)]	17 nM
CCC(C(=O)Nc1ccc2nc(C(=O)O)cn2c1)n1cc(OC)c(-c2cc(Cl)ccc2C#N)cc1=O (racemic) [Example 2, 6-({2-[4-(5-Chloro-2-cyanophenyl)-5-methoxy-2-oxopyridin-1(2H)-yl]butanoyl}amino)imidazo[1,2-a]pyridine-2-carboxylic acid (racemate)]	16 nM
CCC(C(=O)Nc1ccn2ncc(Cl)c2c1)n1cc(OC)c(-c2cc(Cl)ccc2C#N)cc1=O (racemic) [Example 40, 2-[4-(5-Chloro-2-cyanophenyl)-5-methoxy-2-oxopyridin-1(2H)-yl]-N-(3-chloropyrazolo[1,5-a]pyridin-5-yl)butanamide (racemate)]	51 nM
COc1cn(C(CC2CCC2)C(=O)Nc2ccc3nccn3c2)c(=O)cc1-c1cc(Cl)ccc1C#N (racemic) [Example 15, 2-[4-(5-Chloro-2-cyanophenyl)-5-methoxy-2-oxopyridin-1(2H)-yl]-3-cyclobutyl-N-(imidazo[1,2-a]pyridin-6-yl)propanamide (racemate)]	31 nM
COCCC(C(=O)Nc1ccn2ncc(Cl)c2c1)n1cc(OC)c(-c2cc(Cl)ccc2C#N)cc1=O (racemic) [Example 41, 2-[4-(5-Chloro-2-cyanophenyl)-5-methoxy-2-oxopyridin-1(2H)-yl]-N-(3-chloropyrazolo[1,5-a]pyridin-5-yl)-4-methoxybutanamide (racemate)]	11 nM
CCc1nnc2ccc(NC(=O)C(CCOC)n3cc(OC)c(-c4cc(Cl)ccc4C#N)cc3=O)cn12 (racemic) [Example 23, 2-[4-(5-Chloro-2-cyanophenyl)-5-methoxy-2-oxopyridin-1(2H)-yl]-4-methoxy-N-(3-ethyl[1,2,4]triazolo[4,3-a]pyridin-6-yl)butanamide (racemate)]	13 nM
CCOC(=O)c1cnc2ccc(NC(=O)C(CCOC)n3cc(OC)c(-c4cc(Cl)ccc4C#N)cc3=O)cn12 (racemic) [Example 10, Ethyl 6-({2-[4-(5-chloro-2-cyanophenyl)-5-methoxy-2-oxopyridin-1(2H)-yl]-4-methoxybutanoyl}amino)imidazo[1,2-a]pyridine-3-carboxylate (racemate)]	7 nM

— patent publication US9765070B2, “Substituted oxopyridine derivatives” (Bayer Pharma Aktiengesellschaft, priority 2013, dated 2017)
